In the supplement of paper PMC10307832:

Compound: COCC[n+]1c2c(n(Cc3cnccn3)c1C)C(=O)c1ccccc1C2=O [YM155] + CCNC(=O)c1noc(-c2cc(C(C)C)c(O)cc2O)c1-c1ccc(CN2CCOCC2)cc1 [Luminespib] (partner 0.01 µM)
Assay: relative viability (nuclei count vs DMSO), 5 days (fraction); higher = more cells survive
Conditions: first compound 0.06325 µM
Summary of the method: (§1)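 Nuclei were stained with Hoechst during a one-step fixation (final 0.05% Triton X-100, 1% formaldehyde, 1 ug/ml Hoechst) carried out 5 days after dosing, then counted on 4× images. The cells, lung cancer lines in 1536-well plates, had been dosed by pin tool the day after seeding with one drug alone or a fixed anchor-drug dose plus five library-drug doses (not always all listed) in √10 steps. Relative viability is the nuclei count in treated wells divided by that in vehicle wells, and each value is the median of duplicate plates.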

Cell Line | relative viability
NCI-H358 | 0.311
CAL-12T | 0.183
LK-2 | 0.185
HOP-62 | 0.906
PC-14 | 0.143
NCI-H1993 | 0.529
NCI-H2405 | 0.393
NCI-H3122 | 0.0824
A-427 | 0.441

Compound: COCC[n+]1c2c(n(Cc3cnccn3)c1C)C(=O)c1ccccc1C2=O [YM155] + CC(=O)Nc1cccc(-n2c(=O)n(C3CC3)c(=O)c3c(Nc4ccc(I)cc4F)n(C)c(=O)c(C)c32)c1 [Trametinib] (partner 0.02 µM)
Assay: as above
Conditions: first compound 0.002 µM
Summary of the method: as §1

Cell Line | relative viability
HCC-15 | 0.331
NCI-H1975 | 0.291
NCI-H1944 | 0.388
NCI-H2126 | 0.558
EMC-BAC-2 | 0.924
SK-LU-1 | 0.455
NCI-H661 | 0.496
NCI-H358 | 0.142
CAL-12T | 0.281
LK-2 | 0.631
HOP-62 | 0.389
PC-14 | 0.617
NCI-H1993 | 0.466
NCI-H2405 | 0.661
NCI-H3122 | 0.191
A-427 | 0.739

Same assay, conditions: first compound 0.006325 µM

Cell Line | relative viability
HCC-15 | 0.389
HARA | 0.996
NCI-H1975 | 0.299
NCI-H1944 | 0.332
NCI-H2126 | 0.582
EMC-BAC-2 | 0.96
SK-LU-1 | 0.456
NCI-H661 | 0.558
NCI-H358 | 0.153
CAL-12T | 0.337
LK-2 | 0.717
HOP-62 | 0.389
PC-14 | 0.672
NCI-H1993 | 0.536
NCI-H2405 | 0.595
NCI-H3122 | 0.202
A-427 | 0.796

Same assay, conditions: first compound 0.02 µM

Cell Line | relative viability
HCC-15 | 0.283
HARA | 0.629
NCI-H1975 | 0.406
NCI-H1944 | 0.429
NCI-H2126 | 0.541
EMC-BAC-2 | 0.968
SK-LU-1 | 0.564
NCI-H661 | 0.598
NCI-H358 | 0.167
CAL-12T | 0.346
LK-2 | 0.827
HOP-62 | 0.419
PC-14 | 0.36
NCI-H1993 | 0.427
NCI-H2405 | 0.596
NCI-H3122 | 0.242
A-427 | 0.757

Same assay, conditions: first compound 0.06325 µM

Cell Line | relative viability
HCC-15 | 0.423
HARA | 0.676
NCI-H1975 | 0.236
NCI-H1944 | 0.381
NCI-H2126 | 0.556
EMC-BAC-2 | 0.429
SK-LU-1 | 0.438
NCI-H661 | 0.525
NCI-H358 | 0.14
CAL-12T | 0.333
LK-2 | 0.851
HOP-62 | 0.424
PC-14 | 0.119
NCI-H1993 | 0.453
NCI-H2405 | 0.384
NCI-H3122 | 0.203
A-427 | 0.526

Compound: COCC[n+]1c2c(n(Cc3cnccn3)c1C)C(=O)c1ccccc1C2=O [YM155] + C[C@]1(O)C[C@@H](c2nc(-c3ccc4ccc(-c5ccccc5)nc4c3)c3c(N)nccn32)C1 [Linsitinib] (partner 1 µM)
Assay: as above
Conditions: first compound 0.002 µM
Summary of the method: as §1

Cell Line | relative viability
HCC-15 | 0.809
HARA | 0.902
NCI-H1975 | 1.03
NCI-H1944 | 1.14
NCI-H2126 | 0.704
EMC-BAC-2 | 0.85
SK-LU-1 | 1.08
NCI-H661 | 0.697
NCI-H358 | 0.708
CAL-12T | 0.818
LK-2 | 0.425
HOP-62 | 0.906
PC-14 | 0.967
NCI-H1993 | 0.678
NCI-H2405 | 0.952
NCI-H3122 | 0.97
A-427 | 1.06

Same assay, conditions: first compound 0.006325 µM

Cell Line | relative viability
HCC-15 | 0.627
HARA | 0.946
NCI-H1975 | 1.06
NCI-H1944 | 1.15
NCI-H2126 | 0.722
EMC-BAC-2 | 0.83
SK-LU-1 | 1.04
NCI-H661 | 0.699
NCI-H358 | 0.689
CAL-12T | 0.98
LK-2 | 0.764
HOP-62 | 1.02
PC-14 | 0.984
NCI-H1993 | 0.701
NCI-H2405 | 0.755
NCI-H3122 | 1
A-427 | 1.22

Same assay, conditions: first compound 0.02 µM

Cell Line | relative viability
HCC-15 | 0.872
HARA | 1.04
NCI-H1975 | 0.861
NCI-H1944 | 1.19
NCI-H2126 | 0.704
EMC-BAC-2 | 0.597
SK-LU-1 | 1.21
NCI-H661 | 0.54
NCI-H358 | 0.778
CAL-12T | 0.9
LK-2 | 0.491
HOP-62 | 1.32
PC-14 | 0.981
NCI-H1993 | 0.777
NCI-H2405 | 0.83
NCI-H3122 | 0.993
A-427 | 1.12

Same assay, conditions: first compound 0.06325 µM

Cell Line | relative viability
HCC-15 | 0.798
HARA | 0.931
NCI-H1975 | 0.842
NCI-H1944 | 1.32
NCI-H2126 | 0.771
EMC-BAC-2 | 0.818
SK-LU-1 | 0.708
NCI-H661 | 0.598
NCI-H358 | 0.253
CAL-12T | 0.781
LK-2 | 0.796
HOP-62 | 0.92
PC-14 | 0.993
NCI-H1993 | 0.697
NCI-H2405 | 0.469
NCI-H3122 | 1.09
A-427 | 1.09
